Consider one compound from publication PMC5688156, “The natural product carolacton inhibits folate-dependent C1 metabolism by targeting FolD/MTHFD” (Nature Communications, 2017).

In brackets after ≈: the same amount, converted by molar mass. Some results are limits rather than exact numbers.

One experiment has as its target T1, spFolD (Streptococcus pneumoniae serotype 4, UniProt Q97RI9).
T1 construct: His-tag (TEV-cleavable, vector pHis-TEV); made in house; host or cells: E. coli BL21 (DE3)
As to the kind of experiment: SPR binding to spFolD. Set-up: species or system S. pneumoniae. As for the experimental part:
All surface plasmon resonance (SPR) experiments described in this study were performed on a Biacore X100 system. Different FolDs with or without His-tag were coupled on CM5 sensor chips (GE Healthcare) by the amine coupling method using a kit from GE Healthcare Life Sciences (Freiburg, Germany). A pH scouting process was performed before protein immobilization to test the most appropriate buffer and the protein concentration for protein coupling. Finally, 20 μg/mL of ecFolD in 10 mM maleate buffer (pH 6.8), 30 μg/mL of ecFolD Q98H in 10 mM maleate buffer (pH 6.3), 40 μg/mL of ecFolD K54N in 10 mM maleate buffer (pH 5.8), 20 μg/mL of spFolD in 10 mM maleate buffer (pH 6.0) and 15 μg/mL of MTHFD2 (His-tag cleaved) in 10 mM maleate buffer (pH 6.8) were used for coupling. In the protein immobilization procedure, the contact time was calculated based on the pH scouting results to achieve ~3000–5000 relative resonance units (RU). The buffer used in the SPR assays was 1× HBS-P buffer (10 mM HEPES pH 7.4, 150 mM NaCl, 0.05% Tween 20). The 1 mM stock solution of carolacton was prepared in 1× HBS-P buffer and diluted to different concentration ranges by two-fold serial dilution. In the SPR assay, the association time was 180 s and the dissociation time was 600 s. Data analysis was performed using the Biacore evaluation software. […]

The next experiment has as its system E. coli (TolC-deficient). The experiment can be described thus: MIC determination on E. coli (TolC-deficient). Format: cell-based, Escherichia coli. Conditions: 16 h. As for the experimental part:
First, the minimum inhibitory concentration (MIC) of carolacton on the E. coliΔtolC strain was determined. We started to develop the resistant mutants on CASO agar (peptone from casein 15 g/L, peptone from soybean 5 g/L, NaCl 5 g/L and agar 15 g/L; pH 7.3) plates supplemented with 4× the MIC concentration of carolacton (0.5 μg/mL) as selection pressure. Different numbers of E. coliΔtolC cells from 1 × 10^7 to 10^9 were spread on caso agar plates with carolacton. After 7 days, E. coliΔtolC colonies, which were resistant to carolacton, started to form on the agar plates. The mutants picked were inoculated in liquid MHB medium (beef extract 2 g/L, peptone from casein 17.5 g/L and corn starch 1.5 g/L, pH 7.4) supplemented with carolacton.
The determination of MICs was performed as described elsewhere. In brief, E. coli strains were treated with carolacton in serial dilution in either the presence or absence of sub-inhibitory concentrations of polymyxin B nonapeptide (PMBN; 3 µg/mL) and/or phenylalanine–arginine β-napthylamide (PAβN; 20 µg/mL) for 16 h at 37 °C in Mueller–Hinton broth. The MICs were assessed by visual inspection of the plates.

The subject of a further experiment is KB-V.1. The experiment can be described thus: Cytotoxicity screening, KB-V.1 (MTT). Format: cell-based, human. Particulars: for EC50: MDR (Pgp-overexpressing) cell line, 5 d treatment, MTT. The protocol:
Half maximal effective concentrations (EC50) on human cancer cell lines were determined as described elsewhere. Human cancer cell lines were maintained as recommended by the depositor (German Collection of Microorganisms and Cell Cultures, DSMZ) and were treated for 5 d with carolacton in serial dilution. The viability of adherent cell types, HCT-116 (ACC 581), KB-3.1 (ACC-158) and KB-V.1 (ACC-149) was assessed by the addition of MTT tetrazolium salt and absorbance measurement at 570 nm. Histiocytic lymphoma U-937 cells (ACC-5) were maintained in RPMI 1640 medium and transferred into folate-free medium prior to the assay. Cell viability was determined by measuring alamar blue fluorescence emission at 590 nm. The values were referenced and EC50 values were determined by sigmoidal curve fitting. The cell lines KB-3.1 and KB-V.1 are originally derived from HeLa, whereas the latter is an MDR subclone of KB-3.1. They were used to directly compare the activity of carolacton on an mdr1 overexpressing and a sensitive cell line.

T1 sequence (Q97RI9 whole entry): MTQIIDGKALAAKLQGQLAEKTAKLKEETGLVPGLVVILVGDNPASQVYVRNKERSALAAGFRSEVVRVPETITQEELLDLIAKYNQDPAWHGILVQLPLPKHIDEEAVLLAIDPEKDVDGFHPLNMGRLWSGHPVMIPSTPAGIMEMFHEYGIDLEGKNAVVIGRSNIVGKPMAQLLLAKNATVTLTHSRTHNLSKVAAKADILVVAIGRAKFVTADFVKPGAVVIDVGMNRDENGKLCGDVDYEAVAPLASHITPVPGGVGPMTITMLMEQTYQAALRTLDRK

`CO[C@H](CC(=O)O)[C@@H](C)C(=O)[C@H](C)/C=C(\C)[C@H]1OC(=O)[C@H](O)[C@H](O)/C=C/[C@H](C)CCC[C@@H]1C` [carolacton] had a dissociation constant (Kd) on spFolD of 0.027 µM. Besides, the koff at spFolD is 0.0316 s⁻¹. In addition, the MIC with E. coli (TolC-deficient) (Escherichia coli) amounted to 0.13 µg/mL (≈ 0.277 µM); against E. coli (TolC-deficient) (no additive, cation-adjusted Mueller–Hinton broth, 37 °C) it was 0.125 µg/mL (≈ 0.267 µM). Also, the EC50 with KB-V.1 (Homo sapiens, KB-V1, 120 h) was 42 µM; in the experiment with KB-V.1, 41.8 ± 14.5 µM. In the experiment with KB-V.1 (inhibition of cell growth, 5 d), the Maximum inhibition was >80%.
